Assay results published in PubChem BioAssay (NCI).
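Each compound was tested at five concentrations against cells in 96-well plates for 48 hours. GI50 = concentration required for 50% inhibition of growth. At the TGI there is no net growth.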

Key:
Experiment in all cases: growth of human tumour cells (NCI), 48 h
COLO 205 colon = tested on: COLO 205 colon
HCT-15 colon = tested on: HCT-15 colon
HS 578T breast = tested on: HS 578T breast
MCF7 breast = tested on: MCF7 breast
MDA-MB-231 breast = tested on: MDA-MB-231 breast
MDA-N = tested on: MDA-N
SR leukemia = tested on: SR leukemia
TK-10 renal = tested on: TK-10 renal
UACC-257 melanoma = tested on: UACC-257 melanoma
SF-268 CNS = tested on: SF-268 CNS

Compound	TGI (COLO 205 colon)	TGI (HCT-15 colon)	TGI (HS 578T breast)	TGI (MCF7 breast)	TGI (MDA-MB-231 breast)	TGI (MDA-N)	TGI (SR leukemia)	TGI (TK-10 renal)	TGI (UACC-257 melanoma)	GI50 (COLO 205 colon)	GI50 (HCT-15 colon)	GI50 (HS 578T breast)	GI50 (MCF7 breast)	GI50 (MDA-MB-231 breast)	GI50 (SF-268 CNS)	TGI (SF-268 CNS)	GI50 (SR leukemia)	GI50 (TK-10 renal)	GI50 (UACC-257 melanoma)
CCOP(=O)(OCC)C(Cc1c[nH]c2ccccc12)C(=O)O (stereo not given)	> 100 µM	> 100 µM	> 100 µM	> 100 µM	> 100 µM	> 100 µM	> 100 µM	> 100 µM	> 100 µM	–	–	–	–	–	–	–	–	–	–
Fc1ccc(C2CC(c3cccc(Nc4ccncc4)c3)=NN2c2ccccc2)cc1 (stereo not given)	4.91 µM	3.49 µM	3.8 µM	3.48 µM	2.95 µM	–	5.67 µM	3.75 µM	4.31 µM	2.35 µM	1.68 µM	1.81 µM	1.74 µM	1.57 µM	1.75 µM	3.4 µM	2.17 µM	1.99 µM	2.09 µM
CC(O)C1(O)C(O)CC(OC2c3cc4c(c(O)c3[C@@H]3C[C@@]2(C)OC32C=c3cc[nH]c3=N2)C(=O)c2cccc(O)c2C4=O)OC1C (stereo not given in full)	1.97 µM	6.41 µM	5.87 µM	1.69 µM	3.89 µM	3.41 µM	2.36 µM	7.32 µM	3.12 µM	–	–	–	–	–	–	4.38 µM	–	–	–
CC(C)=NC(C(=O)O)C(C)(C)S (stereo not given)	> 100 µM	> 100 µM	> 100 µM	> 100 µM	> 100 µM	> 100 µM	> 100 µM	> 100 µM	> 100 µM	–	–	–	–	–	–	> 100 µM	–	–	–
Cc1ccc(S(=O)(=O)NCCCSCCN)cc1	> 100 µM	> 100 µM	> 100 µM	> 100 µM	> 100 µM	> 100 µM	> 100 µM	> 100 µM	> 100 µM	–	–	–	–	–	–	> 100 µM	–	–	–
C[n+]1c(-c2ccc(/C=N\Nc3ccnc(N/N=C/c4ccc(-c5cn6ccsc6[n+]5C)cc4)n3)cc2)cn2ccsc21	66.6 µM	> 100 µM	> 100 µM	> 100 µM	67.3 µM	26.7 µM	64.8 µM	> 100 µM	43.9 µM	–	–	–	–	–	–	–	–	–	–
Nc1nc(N)c(N=Nc2ccccc2)c(=O)[nH]1	> 100 µM	> 100 µM	–	–	–	–	> 100 µM	> 100 µM	> 100 µM	–	–	–	–	–	–	> 100 µM	–	–	–
OCC1NC(CO)C(O)C1O (stereo not given)	> 100 µM	> 100 µM	> 100 µM	> 100 µM	> 100 µM	> 100 µM	> 100 µM	> 100 µM	> 100 µM	–	–	–	–	–	–	–	–	–	–
Nc1ccc(C2(c3ccc(N)cc3)C3CC4CC(C3)CC2C4)cc1	–	37.2 µM	–	43.7 µM	37.5 µM	37.6 µM	> 100 µM	32.2 µM	36.2 µM	–	–	–	–	–	–	27.3 µM	–	–	–
CC(=O)OC/C=C\Cn1ncc(=O)[nH]c1=O	37.9 µM	37.5 µM	> 100 µM	45.1 µM	68 µM	31.8 µM	–	–	–	–	–	–	–	–	–	36.7 µM	–	–	–
O=C(N[C@H](CO)[C@H](O)c1ccc([N+](=O)[O-])cc1)C(Cl)Cl	> 100 µM	> 100 µM	–	> 100 µM	> 100 µM	> 100 µM	> 100 µM	> 100 µM	> 100 µM	–	–	–	–	–	–	> 100 µM	–	–	–
C=C(CN(C)C)C(=O)c1ccccc1	3.03 µM	28 µM	> 100 µM	–	31.4 µM	28.1 µM	> 60.5 µM	13.4 µM	27.6 µM	–	–	–	–	–	–	> 58.2 µM	–	–	–
COc1ccc(/C=C/c2cc(O)cc(OC3OC(CO)C(O)C(O)C3O)c2)cc1O (stereo not given)	> 100 µM	> 100 µM	> 100 µM	> 100 µM	> 100 µM	> 100 µM	> 100 µM	> 100 µM	> 100 µM	–	–	–	–	–	–	> 100 µM	–	–	–
COc1ncnc2c(Cl)c(C(O)c3ccccc3)c(Cl)cc12 (stereo not given)	> 100 µM	> 100 µM	49.9 µM	> 100 µM	58.6 µM	18.7 µM	22.7 µM	63.4 µM	> 100 µM	–	–	–	–	–	–	57.7 µM	–	–	–
COc1ccc(CCn2ccc(C)n2)c(OC)c1	> 100 µM	> 100 µM	> 100 µM	> 100 µM	> 100 µM	> 100 µM	–	> 100 µM	> 100 µM	–	–	–	–	–	–	> 100 µM	–	–	–
O=S1(=O)C[C@H](NCc2ccccc2)[C@H](NCc2ccccc2)C1	> 100 µM	–	> 100 µM	> 100 µM	> 100 µM	> 100 µM	> 100 µM	> 100 µM	> 100 µM	–	–	–	–	–	–	> 100 µM	–	–	–
CC(C)N(CCNc1nc(C(Cl)(Cl)Cl)nc2cc(Cl)ccc12)C(C)C	3.61 µM	2.48 µM	3.99 µM	3.05 µM	2.46 µM	–	3.11 µM	2.88 µM	3.49 µM	1.8 µM	1.12 µM	1.56 µM	1.54 µM	1.1 µM	1.97 µM	4.44 µM	0.926 µM	1.46 µM	1.93 µM
